Experiments:
mGlu5 receptor = target: T1, mGlu5 receptor (Rattus norvegicus, UniProt P31424); assay: Radioligand binding assay at metabotropic glutamate receptor 5 in rat brain ([3H]MPEP, forebrain membranes); settings: 4 nM [3H]MPEP, read-out: affinity (Ki) for mGlu5 receptor
T1 construct: from tissue; host or cells: forebrain (cortex, striatum and hippocampus) of male Sprague Dawley rats
Method: Radioligand Binding Assay at metabotropic glutamate receptor 5 in rat brain.
a) Membrane preparation: male Sprague Dawley rats (200-300 g, Charles River, Italy) were killed by cervical dislocation and the forebrain (cortex, striatum and hippocampus) was homogenized (2×20 sec) in 50 vols of cold 50 mM Tris buffer pH 7.4, using a Politron homogenizer (Kinematica). Homogenates were centrifuged at 48000×g for 15 min, resuspended in 50 vols of the same buffer, incubated at 37° C. for 15 min and centrifuged and resuspended two more times. The final pellets were frozen and stored at −80° C. until use.
b) Binding assay: pellets from rat forebrain were resuspended in 100 vols of 20 mM HEPES, 2 mM MgCl2, 2 mM CaCl2, pH 7.4. The membranes were incubated in a final volume of 1 ml for 60 min at 25° C. with 4 nM [^3H]MPEP in the absence or presence of competing drugs. Non-specific binding was determined in the presence of 10 μM MPEP (Spooren W. et al., Trends Pharmacol Sci. 22, 331-337, 2001). The incubation was stopped by the addition of cold Tris buffer pH 7.4 and rapid filtration through 0.5% polyethyleneimine pretreated Filtermat 1204-401 (Wallac) filters. The filters were then washed with cold buffer and the radioactivity retained on the filters was counted by liquid scintillation spectrometry. […]

conscious rats = assay: Effect on cystometry in conscious rats (bladder volume capacity); assay type: in vivo, rat
Method: Male Sprague-Dawley rats [Crl: CD® (SD) IGS BR] of 300-400 g b.w. supplied by Charles River Italia were used. The animals were housed with free access to food and water and maintained on a forced 12-hour-light/12-hour-dark cycle at 22-24° C. of temperature, except during the experiment. To quantify urodynamic parameters in conscious rats, cystometrographic studies were performed according to the procedure previously reported (Guarneri et al., Pharmacol. Res. 24: 175, 1991).
Briefly, the rats were anaesthetised by intraperitoneal administration of 3 ml/kg of Equithensin solution (pentobarbital 30 mg/kg and chloral hydrate 125 mg/kg) and placed in a supine position. An approximately 10 mm long midline incision was made in the shaved and cleaned abdominal wall. The urinary bladder was gently freed from adhering tissues, emptied and then cannulated via an incision in the bladder body, using a polyethylene cannula (0.58 mm internal diameter, 0.96 mm external diameter) which was permanently sutured with silk thread. […]
On the day of the experiment, the rats were placed in modified Bollman cages, i.e., restraining cages that were large enough to permit the rats to adopt a normal crouched posture, but narrow enough to prevent turning around. […] The intraluminal-pressure signal during infusion of saline into the bladder (cystometrogram) was continuously recorded on a polygraph (Rectigraph-8K San-ei with BM614/2 amplifier from Biomedica Mangoni) or stored on PC by data acquisition system (PowerLab, Chart 4 software, AD Instruments). From the cystometrogram, bladder volume capacity (BVC) was evaluated. […] Basal BVC value was evaluated as the mean of the values observed in the cystometrograms recorded in an initial period of 30-60 minutes. […] The bladder infusion restarted and changes in BVC were evaluated from the mean values obtained in the cystometrograms observed during 1, 2, and 3 hours after treatment. […]
Each experimental group was composed of 4-11 animals. All data were expressed as mean±standard error. […]

T1 sequence (P31424 21-1203): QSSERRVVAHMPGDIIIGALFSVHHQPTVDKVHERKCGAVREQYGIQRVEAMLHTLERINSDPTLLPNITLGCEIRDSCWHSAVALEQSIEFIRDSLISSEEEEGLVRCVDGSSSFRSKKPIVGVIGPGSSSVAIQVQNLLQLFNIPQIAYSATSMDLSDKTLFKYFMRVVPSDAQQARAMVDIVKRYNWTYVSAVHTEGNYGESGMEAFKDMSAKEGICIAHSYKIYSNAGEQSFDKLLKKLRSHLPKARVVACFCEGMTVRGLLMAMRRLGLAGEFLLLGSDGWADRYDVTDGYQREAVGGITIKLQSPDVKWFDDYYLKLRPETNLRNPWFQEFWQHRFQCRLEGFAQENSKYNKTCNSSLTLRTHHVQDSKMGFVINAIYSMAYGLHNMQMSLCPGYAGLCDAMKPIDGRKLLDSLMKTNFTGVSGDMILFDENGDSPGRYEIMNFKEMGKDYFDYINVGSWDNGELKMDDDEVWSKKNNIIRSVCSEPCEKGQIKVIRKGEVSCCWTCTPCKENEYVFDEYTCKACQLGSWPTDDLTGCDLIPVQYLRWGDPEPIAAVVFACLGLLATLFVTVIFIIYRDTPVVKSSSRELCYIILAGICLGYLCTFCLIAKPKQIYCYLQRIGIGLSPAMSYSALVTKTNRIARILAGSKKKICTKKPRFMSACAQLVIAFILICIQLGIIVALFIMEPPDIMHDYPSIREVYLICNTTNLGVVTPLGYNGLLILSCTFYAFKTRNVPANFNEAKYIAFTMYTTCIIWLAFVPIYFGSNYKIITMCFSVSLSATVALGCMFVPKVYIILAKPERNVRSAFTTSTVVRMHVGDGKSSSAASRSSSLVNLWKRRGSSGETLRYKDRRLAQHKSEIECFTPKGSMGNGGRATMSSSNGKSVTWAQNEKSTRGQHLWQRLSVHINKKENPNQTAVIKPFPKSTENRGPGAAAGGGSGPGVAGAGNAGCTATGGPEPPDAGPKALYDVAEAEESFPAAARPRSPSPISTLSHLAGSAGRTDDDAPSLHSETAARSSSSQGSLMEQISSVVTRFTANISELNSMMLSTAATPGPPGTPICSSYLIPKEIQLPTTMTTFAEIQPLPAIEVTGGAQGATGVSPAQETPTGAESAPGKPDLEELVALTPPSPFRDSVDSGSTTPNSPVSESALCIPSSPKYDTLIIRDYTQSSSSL

| Structure (SMILES) | Ki (mGlu5 receptor) | increase of bladder volume capacity (conscious rats; 1 mg/kg orally) | increase of bladder volume capacity (conscious rats; 3 mg/kg orally, statistically significant from the vehicle group after 3 hours from treatment) | MED (Minimal Effective Dose that induces statistically significant increase of bladder volume capacity) (conscious rats; oral) |
| --- | --- | --- | --- | --- |
| Cc1ccc([N+](=O)[O-])c(N2CCC(=C/C=C/c3ccccc3)CC2)n1 [Example 1, 6-Methyl-3-nitro-2-[4-[(E)-3-phenylprop-2-enylidene]-1-piperidyl]pyridine] | 1.42 nM |  |  |  |
| Cc1nc(C#Cc2cccnc2)cs1 [MTEP] |  | slight increase | sustained increase | 3 |

From US20100317630A1, “NOVEL HETEROCYCLIC COMPOUNDS AS MGLU5 ANTAGONISTS” (RECORDATI IRELAND LIMITED, priority 2009, published 2010)
